Source: publication PMC6154605, “Multi-Anti-Parasitic Activity of Arylidene Ketones and Thiazolidene Hydrazines against Trypanosoma cruzi and Leishmania spp” (Molecules : A Journal of Synthetic Chemistry and Natural …, 2017)
Marks after values point to notes of the source that are not given here.

Legend:
[1] = target: T1, LmTIM (triosephosphate isomerase from Leishmania mexicana) (Leishmania mexicana, UniProt P48499); assay: Inhibition of triosephosphate isomerase; type: biochemical; conditions: read-out: Percentage of Inhibition LmTIM
T1 construct: made in house; host or cells: Escherichia coli
T1 sequence (P48499 whole entry): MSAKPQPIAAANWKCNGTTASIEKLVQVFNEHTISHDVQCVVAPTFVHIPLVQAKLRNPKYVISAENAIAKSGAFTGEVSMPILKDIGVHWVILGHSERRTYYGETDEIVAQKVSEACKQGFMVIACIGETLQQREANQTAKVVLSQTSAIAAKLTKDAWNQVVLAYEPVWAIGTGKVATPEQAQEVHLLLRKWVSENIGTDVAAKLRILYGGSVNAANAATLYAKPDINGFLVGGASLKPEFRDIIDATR
Experimental: Compounds were dissolved in DMSO. […] The experiments were performed in triplicate.

[2] = tested on: L. braziliensis promastigotes; assay: Leishmanicidal activity on promastigotes, resazurin; type: cell-based, Leishmania braziliensis
In short: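 Promastigotes (2 × 10^6/well) in Schneider's medium with 20% FBS treated with compound dilutions for 48 h at 26 °C. Resazurin reduction read at 570 and 600 nm; IC50 from duplicate experiments, triplicate concentrations.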

[3] = target: cruzipain (Trypanosoma cruzi, UniProt P25779); assay: Inhibition of T. cruzi cruzipain; type: biochemical; conditions: at 100 µM; read-out: Percentage of Inhibition Cruzipain
Chain of cruzipain (P25779 123-467): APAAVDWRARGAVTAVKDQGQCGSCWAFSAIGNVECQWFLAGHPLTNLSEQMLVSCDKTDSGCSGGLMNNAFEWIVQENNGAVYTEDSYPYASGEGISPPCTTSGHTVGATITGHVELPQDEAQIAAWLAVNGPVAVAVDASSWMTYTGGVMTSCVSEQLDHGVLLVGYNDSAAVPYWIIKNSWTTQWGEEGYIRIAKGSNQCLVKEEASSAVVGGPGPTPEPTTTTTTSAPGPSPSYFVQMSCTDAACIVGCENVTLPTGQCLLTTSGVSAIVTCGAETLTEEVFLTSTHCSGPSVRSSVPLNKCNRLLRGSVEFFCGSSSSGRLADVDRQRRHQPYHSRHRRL
Experimental: Cruzipain was purified to homogeneity from epimastigotes of the Tulahuen 2 strain by ConA–Sepharose affinity chromatography, as previously described. Cruzipain (2.5 μM ε = 58,285 M^−1cm^−1) was incubated in 50 mM acetate buffer pH 5.5 with 5 mM DTT, and 100 μM inhibitor were added, shaking the solution for 15 min at 27 °C. The derivatives were added as solutions in DMSO, and the controls contained the same solvent concentration. The concentration of DMSO never exceeded 1% in the reaction medium. L-leucylam-ido(4-guanidino)butane (E-64) was used as a positive control of inhibition. Then, the fluorogenic substrate Z-Phe-Arg 7-amido-4-methylcoumarin hydrochloride (Z-Phe-Arg-AMC) at 10 μM was added, and the fluorescence was measured during 10 min at intervals of 3 s (excitation at 380 nm and emission at 460 nm) using a Varioskan Flash Spectrophotometer. From the slope of the negative control, we calculated the total (100%) enzyme activity, while the slopes obtained in the presence of the compounds yielded the percentage of remaining enzyme activity. The percentage of enzyme inhibition was determined as […]. The experiments were done in duplicate.

[4] = target: triosephosphate isomerase from T. cruzi (TcTIM) (Trypanosoma cruzi, UniProt P52270); assay: Inhibition of triosephosphate isomerase; conditions: read-out: Percentage of Inhibition TcTIM
Chain of triosephosphate isomerase from T. cruzi (TcTIM) (P52270 whole entry): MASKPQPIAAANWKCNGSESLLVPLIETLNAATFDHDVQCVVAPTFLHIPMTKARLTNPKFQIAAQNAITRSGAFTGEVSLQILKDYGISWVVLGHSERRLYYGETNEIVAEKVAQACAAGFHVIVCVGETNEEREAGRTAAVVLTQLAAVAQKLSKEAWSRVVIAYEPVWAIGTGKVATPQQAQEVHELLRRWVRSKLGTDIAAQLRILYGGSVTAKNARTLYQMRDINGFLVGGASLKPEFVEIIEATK
Experimental: Expression and purification of proteins: TcTIM, LmTIM and HsTIM were expressed in Escherichia coli and purified as described in the literature [39]. […] Before use, extensive dialysis against 100 mM triethanolamine/10 mM EDTA (pH 7.4) was performed.
Enzymatic activity assays: Enzymatic activity was determined following the conversion of glyceraldehyde 3-phosphate into dihydroxyacetone phosphate. […] The reaction mixture (1 mL, pH 7.4) contained 100 mM triethanolamine, 10 mM EDTA, 0.2 mM NADH, 1 mM glyceraldehyde 3-phosphate and 0.9 units of α-glycerol phosphate dehydrogenase. The reaction was initiated by the addition of 5 ng/mL of the TcTIM.
The mixture also contained the compounds at the indicated concentrations. Compounds were dissolved in DMSO. After 2 h, 10 µL was withdrawn and added to a final volume of 100 µL of the reaction mixture for the activity assay. The inhibition assay was performed in a 96-well microplate Varioskan spectrophotometer. […] The experiments were performed in triplicate.

[5] = tested on: T. cruzi epimastigotes, Tulahuen 2 strain (genotype TcVI); conditions: cited from earlier work
[6] = tested on: zebrafish embryos; assay: Zebrafish embryo toxicity test (LD50)
[7] = tested on: J774.1 murine macrophages; conditions: J774.1; read-out: IC50 ± SD Murine Macrophages; cited from earlier work

For `C=CCn1c(-c2ccc(Cl)cc2)cs\c1=N/N=C/C=C/c1ccco1` [GAT1033], the inhibition at 100 µM [1] was 0%, the IC50 ([2]; Leishmania braziliensis, 48 h, read-out: IC50 ± SD Promastigotes L. braziliensis) was 7 ± 1 µM and the “SI NCTC/ L. braziliensis” value ([2]; ratio IC50 mammalian cell / IC50 parasite (promastigotes)) was 58. The inhibition at 100 µM [3] was 0%, the inhibition at 100 µM [4] was 0% and the “SI J774.1/ T. cruzi” value ([5]; ratio IC50 mammalian cell / IC50 parasite (epimastigotes)) was 37 ^a. For the same molecule, the IC50 ([5]; read-out: IC50 ± SD Epimastigotes T. cruzi) was 1.6 ± 0.5 µM, the LD50 without chorion ([6]; dechorionated zebrafish embryos, 72 h incubation) was 27 ± 1 µM and the LD50 with chorion ([6]; zebrafish embryos with chorion) was greater than 100 µM. For the same molecule, the IC50 [7] was 60 ± 6 µM.
